Experimental data published in paper PMC8120209, “Longitudinal evaluation of a novel BChE PET tracer as an early in vivo biomarker in the brain of a mouse model for Alzheimer disease” (Theranostics, 2021).
pKi: −log10 of the molar value.

Assays:
µ-opioid receptor = target: T1, µ-opioid receptor (Rattus norvegicus, UniProt P33535); assay: [3H]DAMGO radioligand displacement in rat cortex homogenates; format: binding
T1 construct: gene Oprm1; rat cortex homogenates

D2L(h) = target: T2, D2L(h) (Homo sapiens, UniProt P14416); assay: biochemical; design: Eurofins SafetyScreen44 radioligand displacement, inhibition of control specific binding; conditions: read-out: % Inhibition of Control Specific Binding, Mean
T2 construct: gene DRD2; long isoform D2L

5-HT transporter (h) = target: T3, 5-HT transporter (h) (Homo sapiens, UniProt P31645); assay: biochemical; design: Eurofins SafetyScreen44 radioligand displacement, inhibition of control specific binding; conditions: read-out: % Inhibition of Control Specific Binding, Mean
T3 construct: gene SLC6A4

D2S(h) = target: T4, D2S(h) (Homo sapiens, UniProt P14416); assay: biochemical; design: Eurofins SafetyScreen44 radioligand displacement, inhibition of control specific binding; conditions: read-out: % Inhibition of Control Specific Binding, Mean
T4 construct: gene DRD2; short isoform D2S

D3(h) = target: T5, D3(h) (Homo sapiens, UniProt P35462); assay: biochemical; design: Eurofins SafetyScreen44 radioligand displacement, inhibition of control specific binding; conditions: read-out: % Inhibition of Control Specific Binding, Mean
T5 construct: gene DRD3

PDE4D2 (h) = target: T6, PDE4D2 (h) (Homo sapiens, UniProt Q08499); assay: biochemical; design: Eurofins SafetyScreen44 enzyme assays, inhibition of control specific activity; conditions: read-out: % Inhibition of Control Values, Mean
T6 construct: gene PDE4D; isoform PDE4D2

GR (h) = target: T7, GR (h) (Homo sapiens, UniProt P04150); assay: biochemical; design: Eurofins SafetyScreen44 radioligand displacement, inhibition of control specific binding; conditions: read-out: % Inhibition of Control Specific Binding, Mean
T7 construct: gene NR3C1

β1(h) = target: T8, β1(h) (Homo sapiens, UniProt P08588); assay: biochemical; design: Eurofins SafetyScreen44 radioligand displacement, inhibition of control specific binding; conditions: read-out: % Inhibition of Control Specific Binding, Mean
T8 construct: gene ADRB1

[1] = target: T9, 5-HT1D (agonist radioligand) (Rattus norvegicus, UniProt P28565); assay: biochemical; conditions: read-out: % Inhibition of Control Specific Binding Mean
T9 construct: gene Htr1d

[2] = target: T10, 5-HT1B (antagonist radioligand) (Rattus norvegicus, UniProt P28564); assay: biochemical; conditions: read-out: % Inhibition of Control Specific Binding Mean
T10 construct: gene Htr1b

[3] = target: T11, MAO-A (antagonist radioligand) (Rattus norvegicus, UniProt P21396); assay: biochemical; conditions: read-out: % Inhibition of Control Specific Binding Mean
T11 construct: gene Maoa

[4] = target: AR(h) (agonist radioligand) (Homo sapiens, UniProt P10275); assay: biochemical; conditions: read-out: % Inhibition of Control Specific Binding Mean
acetylcholinesterase (h) = target: T12, acetylcholinesterase (h) (Homo sapiens, UniProt P22303); assay: biochemical; design: Eurofins SafetyScreen44 enzyme assays, inhibition of control specific activity; conditions: read-out: % Inhibition of Control Values, Mean
T12 construct: gene ACHE

5-HT2A(h) = target: T13, 5-HT2A(h) (Homo sapiens, UniProt P28223); assay: biochemical; design: Eurofins SafetyScreen44 radioligand displacement, inhibition of control specific binding; conditions: read-out: % Inhibition of Control Specific Binding, Mean
T13 construct: gene HTR2A

β2(h) = target: T14, β2(h) (Homo sapiens, UniProt P07550); assay: biochemical; design: Eurofins SafetyScreen44 radioligand displacement, inhibition of control specific binding; conditions: read-out: % Inhibition of Control Specific Binding, Mean
T14 construct: gene ADRB2

N muscle-type (h) = target: T15, N muscle-type (h) (Homo sapiens, UniProt P02708); assay: biochemical; design: Eurofins SafetyScreen44 radioligand displacement, inhibition of control specific binding; conditions: read-out: % Inhibition of Control Specific Binding, Mean
T15 construct: gene CHRNA1

M5(h) = target: T16, M5(h) (Homo sapiens, UniProt P08912); assay: biochemical; design: Eurofins SafetyScreen44 radioligand displacement, inhibition of control specific binding; conditions: read-out: % Inhibition of Control Specific Binding, Mean
T16 construct: gene CHRM5

5-HT3(h) = target: T17, 5-HT3(h) (Homo sapiens, UniProt P46098); assay: biochemical; design: Eurofins SafetyScreen44 radioligand displacement, inhibition of control specific binding; conditions: read-out: % Inhibition of Control Specific Binding, Mean
T17 construct: gene HTR3A

H1(h) = target: T18, H1(h) (Homo sapiens, UniProt P35367); assay: biochemical; design: Eurofins SafetyScreen44 radioligand displacement, inhibition of control specific binding; conditions: read-out: % Inhibition of Control Specific Binding, Mean
T18 construct: gene HRH1

M1(h) = target: T19, M1(h) (Homo sapiens, UniProt P11229); assay: biochemical; design: Eurofins SafetyScreen44 radioligand displacement, inhibition of control specific binding; conditions: read-out: % Inhibition of Control Specific Binding, Mean
T19 construct: gene CHRM1

[5] = target: T20, norepinephrine transporter(h) (Homo sapiens, UniProt P23975); assay: biochemical; design: Eurofins SafetyScreen44 radioligand displacement, inhibition of control specific binding; conditions: read-out: % Inhibition of Control Specific Binding, Mean
T20 construct: gene SLC6A2

dopamine transporter(h) = target: T21, dopamine transporter(h) (Homo sapiens, UniProt Q01959); assay: biochemical; design: Eurofins SafetyScreen44 radioligand displacement, inhibition of control specific binding; conditions: read-out: % Inhibition of Control Specific Binding, Mean
T21 construct: gene SLC6A3

D5(h) = target: T22, D5(h) (Homo sapiens, UniProt P21918); assay: biochemical; design: Eurofins SafetyScreen44 radioligand displacement, inhibition of control specific binding; conditions: read-out: % Inhibition of Control Specific Binding, Mean
T22 construct: gene DRD5
T22 sequence (P21918 whole entry): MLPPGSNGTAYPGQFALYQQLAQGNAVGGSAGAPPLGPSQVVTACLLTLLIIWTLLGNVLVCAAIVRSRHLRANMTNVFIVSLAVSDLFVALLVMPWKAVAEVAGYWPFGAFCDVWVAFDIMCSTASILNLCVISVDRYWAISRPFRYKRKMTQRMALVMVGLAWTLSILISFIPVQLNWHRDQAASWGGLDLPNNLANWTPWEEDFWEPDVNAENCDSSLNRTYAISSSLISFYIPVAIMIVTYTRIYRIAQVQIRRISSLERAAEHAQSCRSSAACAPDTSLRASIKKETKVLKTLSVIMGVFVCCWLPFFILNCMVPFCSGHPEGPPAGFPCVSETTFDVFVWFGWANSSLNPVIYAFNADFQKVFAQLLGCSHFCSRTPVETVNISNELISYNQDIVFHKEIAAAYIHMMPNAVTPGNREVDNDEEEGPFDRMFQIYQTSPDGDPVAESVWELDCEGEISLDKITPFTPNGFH

T15 sequence (P02708 whole entry): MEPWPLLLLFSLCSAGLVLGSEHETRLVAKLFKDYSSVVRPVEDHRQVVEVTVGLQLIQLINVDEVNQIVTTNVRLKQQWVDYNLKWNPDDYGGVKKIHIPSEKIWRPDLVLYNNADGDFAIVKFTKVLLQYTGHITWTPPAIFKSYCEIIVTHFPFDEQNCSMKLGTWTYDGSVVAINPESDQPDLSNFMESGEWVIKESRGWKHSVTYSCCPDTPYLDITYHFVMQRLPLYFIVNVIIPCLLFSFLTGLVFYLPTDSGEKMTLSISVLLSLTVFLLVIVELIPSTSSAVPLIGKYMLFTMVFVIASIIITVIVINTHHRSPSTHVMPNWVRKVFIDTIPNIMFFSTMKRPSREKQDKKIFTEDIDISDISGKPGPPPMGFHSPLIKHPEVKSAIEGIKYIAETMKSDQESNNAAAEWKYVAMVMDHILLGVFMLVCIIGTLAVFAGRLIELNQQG
T15 sequence (P11230 whole entry partner): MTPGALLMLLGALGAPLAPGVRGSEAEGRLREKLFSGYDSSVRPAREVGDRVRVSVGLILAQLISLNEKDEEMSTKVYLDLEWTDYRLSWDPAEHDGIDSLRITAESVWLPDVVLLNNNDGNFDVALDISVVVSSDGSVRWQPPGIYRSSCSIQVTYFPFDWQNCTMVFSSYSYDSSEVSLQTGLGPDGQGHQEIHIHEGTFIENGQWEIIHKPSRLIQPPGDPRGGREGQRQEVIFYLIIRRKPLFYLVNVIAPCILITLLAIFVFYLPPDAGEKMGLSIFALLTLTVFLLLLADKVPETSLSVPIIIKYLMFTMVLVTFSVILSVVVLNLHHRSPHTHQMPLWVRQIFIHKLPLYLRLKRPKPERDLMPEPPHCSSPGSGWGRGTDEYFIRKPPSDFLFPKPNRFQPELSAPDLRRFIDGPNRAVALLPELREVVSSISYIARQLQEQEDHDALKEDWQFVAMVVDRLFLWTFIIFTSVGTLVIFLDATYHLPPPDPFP
T15 sequence (Q07001 whole entry partner): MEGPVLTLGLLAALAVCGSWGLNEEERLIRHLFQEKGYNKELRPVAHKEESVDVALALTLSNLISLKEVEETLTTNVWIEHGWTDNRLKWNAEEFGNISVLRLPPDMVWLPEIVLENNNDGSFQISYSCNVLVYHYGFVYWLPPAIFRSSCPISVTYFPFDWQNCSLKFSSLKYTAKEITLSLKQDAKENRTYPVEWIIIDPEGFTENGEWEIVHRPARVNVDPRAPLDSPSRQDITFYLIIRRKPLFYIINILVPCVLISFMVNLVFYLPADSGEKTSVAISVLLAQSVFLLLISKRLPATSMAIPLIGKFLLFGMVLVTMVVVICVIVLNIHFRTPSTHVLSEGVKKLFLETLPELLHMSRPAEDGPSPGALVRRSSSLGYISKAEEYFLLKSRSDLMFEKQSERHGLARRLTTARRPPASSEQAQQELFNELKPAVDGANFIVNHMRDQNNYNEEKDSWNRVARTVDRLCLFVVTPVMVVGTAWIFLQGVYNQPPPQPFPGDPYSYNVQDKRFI
T3 sequence (P31645 whole entry): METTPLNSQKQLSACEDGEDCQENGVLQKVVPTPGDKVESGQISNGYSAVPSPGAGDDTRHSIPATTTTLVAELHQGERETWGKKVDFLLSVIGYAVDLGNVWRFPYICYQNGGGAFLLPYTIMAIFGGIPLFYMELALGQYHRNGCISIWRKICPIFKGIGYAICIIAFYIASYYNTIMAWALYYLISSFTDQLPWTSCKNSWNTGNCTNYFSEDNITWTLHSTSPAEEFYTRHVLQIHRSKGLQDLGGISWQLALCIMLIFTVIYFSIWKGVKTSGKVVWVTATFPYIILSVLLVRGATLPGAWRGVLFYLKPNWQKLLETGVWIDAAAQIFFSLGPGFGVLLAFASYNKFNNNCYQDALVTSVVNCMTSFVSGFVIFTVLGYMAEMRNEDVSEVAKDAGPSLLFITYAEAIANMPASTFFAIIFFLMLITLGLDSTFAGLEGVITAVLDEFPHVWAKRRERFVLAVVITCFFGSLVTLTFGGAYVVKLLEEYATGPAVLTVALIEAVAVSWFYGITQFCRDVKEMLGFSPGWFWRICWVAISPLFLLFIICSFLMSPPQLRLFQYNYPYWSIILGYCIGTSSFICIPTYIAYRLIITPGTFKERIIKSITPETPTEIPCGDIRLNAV
T2 sequence (P14416 whole entry, canonical isoform): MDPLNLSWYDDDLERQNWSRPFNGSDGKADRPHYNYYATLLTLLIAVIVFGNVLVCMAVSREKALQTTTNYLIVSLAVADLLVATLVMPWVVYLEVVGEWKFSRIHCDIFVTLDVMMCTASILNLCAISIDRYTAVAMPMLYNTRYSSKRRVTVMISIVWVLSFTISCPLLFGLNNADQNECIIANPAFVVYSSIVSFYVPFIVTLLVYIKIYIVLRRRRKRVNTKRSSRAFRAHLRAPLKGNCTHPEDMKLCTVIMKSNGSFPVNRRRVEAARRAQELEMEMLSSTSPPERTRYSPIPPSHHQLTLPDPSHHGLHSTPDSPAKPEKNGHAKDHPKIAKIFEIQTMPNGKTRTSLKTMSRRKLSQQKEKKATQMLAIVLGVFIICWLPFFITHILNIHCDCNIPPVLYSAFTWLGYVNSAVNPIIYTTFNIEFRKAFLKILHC
T4 sequence (P14416 whole entry, canonical isoform): as above
T16 sequence (P08912 whole entry): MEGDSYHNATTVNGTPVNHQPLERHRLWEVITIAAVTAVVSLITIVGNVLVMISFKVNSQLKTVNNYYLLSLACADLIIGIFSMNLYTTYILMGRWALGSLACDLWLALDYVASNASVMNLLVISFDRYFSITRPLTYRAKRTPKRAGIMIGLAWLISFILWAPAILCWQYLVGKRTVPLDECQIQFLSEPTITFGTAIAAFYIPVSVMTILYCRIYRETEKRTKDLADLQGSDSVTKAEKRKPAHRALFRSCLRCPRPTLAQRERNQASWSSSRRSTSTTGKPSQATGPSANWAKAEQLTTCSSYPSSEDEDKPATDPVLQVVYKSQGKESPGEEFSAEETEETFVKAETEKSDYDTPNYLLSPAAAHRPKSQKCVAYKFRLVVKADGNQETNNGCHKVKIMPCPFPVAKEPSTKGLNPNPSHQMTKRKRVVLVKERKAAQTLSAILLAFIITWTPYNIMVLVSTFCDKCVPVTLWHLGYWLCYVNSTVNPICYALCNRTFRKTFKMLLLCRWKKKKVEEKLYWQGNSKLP
T18 sequence (P35367 whole entry): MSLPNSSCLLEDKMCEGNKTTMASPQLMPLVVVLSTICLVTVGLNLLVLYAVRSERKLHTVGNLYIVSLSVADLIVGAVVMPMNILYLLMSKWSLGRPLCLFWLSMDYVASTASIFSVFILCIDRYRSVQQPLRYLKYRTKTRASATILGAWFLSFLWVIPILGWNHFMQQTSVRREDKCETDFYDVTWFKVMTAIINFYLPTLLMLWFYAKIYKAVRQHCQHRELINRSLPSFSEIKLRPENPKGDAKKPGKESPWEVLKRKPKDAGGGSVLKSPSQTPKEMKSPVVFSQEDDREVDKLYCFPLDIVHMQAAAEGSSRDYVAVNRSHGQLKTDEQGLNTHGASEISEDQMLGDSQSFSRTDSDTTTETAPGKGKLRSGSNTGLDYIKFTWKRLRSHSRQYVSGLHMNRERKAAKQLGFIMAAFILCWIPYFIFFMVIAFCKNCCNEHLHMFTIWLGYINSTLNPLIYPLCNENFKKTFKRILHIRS
T17 sequence (P46098 whole entry): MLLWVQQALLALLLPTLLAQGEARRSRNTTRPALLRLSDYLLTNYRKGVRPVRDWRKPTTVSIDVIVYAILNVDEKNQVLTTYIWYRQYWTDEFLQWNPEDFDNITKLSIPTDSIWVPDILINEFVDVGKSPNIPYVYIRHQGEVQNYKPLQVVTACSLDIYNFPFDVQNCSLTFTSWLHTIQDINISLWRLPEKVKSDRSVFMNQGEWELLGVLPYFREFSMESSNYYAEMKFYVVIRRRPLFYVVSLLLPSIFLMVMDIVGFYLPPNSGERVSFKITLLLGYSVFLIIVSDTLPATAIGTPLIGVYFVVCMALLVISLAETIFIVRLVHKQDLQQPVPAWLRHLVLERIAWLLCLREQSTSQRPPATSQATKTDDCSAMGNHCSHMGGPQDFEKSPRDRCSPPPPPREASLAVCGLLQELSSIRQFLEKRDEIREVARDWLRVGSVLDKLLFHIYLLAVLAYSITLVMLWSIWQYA
T5 sequence (P35462 whole entry): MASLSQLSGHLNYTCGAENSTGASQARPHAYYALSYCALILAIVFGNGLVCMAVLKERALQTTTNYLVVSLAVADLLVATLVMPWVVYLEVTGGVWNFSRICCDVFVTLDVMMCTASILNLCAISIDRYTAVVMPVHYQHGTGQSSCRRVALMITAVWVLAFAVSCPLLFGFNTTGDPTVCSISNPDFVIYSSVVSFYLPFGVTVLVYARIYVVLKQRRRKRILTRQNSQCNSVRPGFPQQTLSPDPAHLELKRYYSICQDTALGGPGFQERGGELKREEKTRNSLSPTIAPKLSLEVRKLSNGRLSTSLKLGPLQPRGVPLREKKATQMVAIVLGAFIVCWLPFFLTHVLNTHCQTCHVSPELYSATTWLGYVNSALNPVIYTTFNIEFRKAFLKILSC

`COCCN(CC1CCCN(Cc2ccccc2)C1)S(=O)(=O)c1ccc2ccccc2c1` (racemic) [compound 4, (±)N-((1-benzylpiperidin-3-yl)methyl)-N-(2-methoxyethyl)naphthalene-2-sulfonamide] showed a pKi (µ-opioid receptor) of 5.74, an inhibition at 10 µM (D2L(h)) of 26.6% and an inhibition at 10 µM (5-HT transporter (h)) of 12.7%. For the same molecule, the inhibition at 10 µM (D2S(h)) was 55.6%, the inhibition at 10 µM (D3(h)) was 38.4% and the inhibition at 10 µM (PDE4D2 (h)) was -3.7%. The inhibition at 10 µM (GR (h)) was 4.7%, the inhibition at 10 µM (β1(h)) was 4.5% and the inhibition at 10 µM [1] was 33%. For the same molecule, the inhibition at 10 µM [2] was -12.8%, the inhibition at 10 µM [3] was -0.2% and the inhibition at 10 µM [4] was -6.6%. For the same molecule, the inhibition at 10 µM (acetylcholinesterase (h)) was 12.3%, the inhibition at 10 µM (5-HT2A(h)) was 93% and the inhibition at 10 µM (β2(h)) was 10.5%. It also gave an inhibition at 10 µM (N muscle-type (h)) of 23%, an inhibition at 10 µM (M5(h)) of 17.6% and an inhibition at 10 µM (5-HT3(h)) of -2.7%. The inhibition at 10 µM (H1(h)) was 29%, the inhibition at 10 µM (M1(h)) was 53.1% and the inhibition at 10 µM [5] was 34.1%. It also gave an inhibition at 10 µM (dopamine transporter(h)) of 26% and an inhibition at 10 µM (D5(h)) of 24.2%.
